Measured values: patent US20110152267A1, “Compositions and Methods for Treating Hyperproliferative Disorders” (Texas Tech University System, priority 2009, published 2011)

Columns and labels:
Format in all cases: cell-based, human
[1] = tested on: SJ-G2 Glioblastoma cell line; assay: DIMSCAN cytotoxicity, fenretinide + L-threo-sphinganines 3:1 (Example B8); conditions: 96 h
Protocol: (§1) Cytotoxicity Assay—Once again, cytotoxicity is determined using the DIMSCAN assay system (R. Proffitt et al., Cytometry 24, 204-213 (1996); T. Frgala et al., Mol Cancer Ther. 6:886-97, 2007). The system employs digital imaging microscopy to quantify viable cells, which selectively accumulate fluorescein diacetate to become brightly fluorescent. The system is capable of measuring cytotoxicity over a 4-5 log dynamic range by quenching the residual fluorescence of dead and dying cells with eosin Y and quantifying the total fluorescence of viable cells using digital thresholding. Measured fluorescence is directly proportionate to the number of viable cells. A comparison of the total fluorescence of a drug-treated cell population to the fluorescence of a similar number of untreated cells yields a survival fraction. In brief, 2000 to 10,000 cells/well (depending on size and growth rates) are replicate plated into 60 wells of a 96-well tissue culture plate in 0.1 mL of whole medium and allowed to attach overnight. Drug(s) are then added in 0.05 mL of whole medium to the final concentrations indicated. Drugs (fenretinide, and various chain length L-threo-sphinganines) were tested both as single agents and in a 3:1 ratio of fenretinide:sphinganine. C18-L-threo-sphinganine, or “safingol,” was also tested and results shown for reference. There are 12 wells treated per drug concentration. Twelve wells receive drug vehicle-only to the appropriate final concentration and serve as controls for the plate. Cells are incubated for 96 hours at 37° C. in ambient air with 5% CO2. Fluorescein diacetate is then added to each well in 0.05 mL media to a final concentration of 8 microgram/mL. Cells are incubated for a further 15 minutes at 37° C. and 0.03 mL of 0.5% eosin Y is added to each well. Total fluorescence of viable cells is then measured by digital imaging microscopy. Results were graphed as the ratio of the fluoresecence of drug-treated wells to non-drug treated control wells (i.e., Survival Fraction). All tests were performed at least twice. Representative results are shown.
(§2) The Combination Index (CI) is a term to describe mathematical modeling of the pharmacologic effects on cytotoxicity (cell death) of two drugs in combination based. Cytotoxic “synergy” is defined as a cell death affect which is greater than would be expected from a simple product of the single agent cytotoxicities alone (i.e. an “additive” effect). By Chou-Talalay analysis, a CI<0.9 on a Fraction Affected (“Fa”, i.e. fraction of cells killed) indicates synergy, with smaller numbers indicating greater synergy; a CI of 0.9-1.1 signifies an additive or near-additive effect; and a CI>1.1 means the drug combination is antagonistic.
Fenretinide and L-threo-sphinganines tested in human Glioblastoma (brain cancer) cell line, SJ-G2.

[2] = tested on: OVCAR-8 ovarian adenocarcinoma cell line; assay: DIMSCAN cytotoxicity, fenretinide + L-threo-sphinganines 3:1 (Example B15); design: key to CI (Combination Index): Chou-Talalay CI: <0.9 synergy, 0.9-1.1 additive, >1.1 antagonism; conditions: 96 h
Protocol: as §1, §2
Fenretinide and L-threo-sphinganines tested in human ovarian adenocarcinoma (ovarian cancer) cell line, OVCAR-8.

[3] = tested on: RPMI-8226 Multiple Myeloma cell line; assay: DIMSCAN cytotoxicity, fenretinide + L-threo-sphinganines 3:1 (Example B2); conditions: 96 h
Protocol: as §1, §2
Fenretinide and L-threo-sphinganines tested in human Multiple Myeloma (a cancer of the blood and bone marrow) cell line, RPMI-8226.

[4] = tested on: A-2058 melanoma cell line; assay: DIMSCAN cytotoxicity, fenretinide + L-threo-sphinganines 3:1 (Example B11); conditions: 96 h
Protocol: as §1, §2
Fenretinide and L-threo-sphinganines tested in human melanoma (skin cancer) cell line, A-2058.

[5] = tested on: PC-3 prostate adenocarcinoma cell line; assay: DIMSCAN cytotoxicity, fenretinide + L-threo-sphinganines 3:1 (Example B17)
Protocol: as §1, §2
Fenretinide and L-threo-sphinganines tested in human prostate adenocarcinoma (prostate cancer) cell line, PC-3.

[6] = tested on: CHLA-266 brain cancer (PNET) cell line; assay: DIMSCAN cytotoxicity dose-response with fenretinide (Examples A, FIGS. 2, 8, 13); conditions: 2% oxygen, at one or more doses, +96 hrs
Protocol: Cytotoxicity Assay: Cytotoxicity in cell lines was determined using a fluorescence-based assay employing digital imaging microscopy (DIMSCAN)(after Fragala, et al, Mol Cancer Ther, 6:886-897, 2007). DIMSCAN quantitates viable cells which selectively accumulate fluorescein diacetate and is capable of measuring cytotoxicity over a 4-5 log dynamic range by quantifying total fluorescence per well (which is proportional to viable, clonogenic cells) after eliminating background fluorescence using digital thresholding and eosin Y quenching. Briefly, cell lines were seeded into 96-well plates in 100 µL of complete culture medium (10-20% serum) per well. Cells were incubated overnight in 2%, 5% or 20% oxygen (room air) prior to addition of drugs in […] volumes of complete medium to various final drug concentrations in replicates of 12 wells per concentration. In assays employing D-threo-PPMP, PPMP was employed at a fixed, minimally-toxic, final concentration of 10 μM in each well. Control wells received ethanol (final concentration=0.12%-0.20%) in complete medium equivalent to the maximum final ethanol concentration of drug-treated wells. Plates were incubated at various oxygen concentrations to simulate physiological hypoxia (i.e., 2% oxygen=typical solid tumor oxygen levels; 5%=bone marrow oxygen levels for leukemias; 20% room air=supraphysiological oxygen for comparison with typical laboratory culture conditions). Plates were assayed at 3-4 days after initiating drug exposure depending on the growth properties of each cell line, to allow for maximum cell death and outgrowth of surviving cells. To measure cytotoxicity, FDA (stock solution of 1 mg/ml in DMSO) was added, in 50 µL of complete medium per well, to a final concentration of 10 µg/ml. The plates were incubated for an additional 15-30 minutes at 37 C and then 30 µL of eosin Y (0.5% in normal saline) was added per well. Total fluorescence of each well was then measured using digital imaging microscopy. […]

[7] = 4-HPR 1.5 μM + L-threo-sphinganine 0.5 μM
[8] = 4-HPR 3 μM + L-threo-sphinganine 1 μM
[9] = 4-HPR 6 μM + L-threo-sphinganine 2 μM
[10] = 4-HPR 9 μM + L-threo-sphinganine 3 μM

For `CCCCCCCCCCCCCC[C@H](O)[C@@H](N)CO` [C17, (2S,3S)-2-amino-1,3-heptadecanediol], the “CI (Combination Index)” value [1, 7] was 0.6, the “Fa (fraction affected)” value [1, 7] was 0.462 and the “CI (Combination Index)” value [1, 8] was 0.4. The “Fa (fraction affected)” value [1, 8] was 0.874, the “CI (Combination Index)” value [1, 9] was 0.6 and the “Fa (fraction affected)” value [1, 9] was 0.928. The “CI (Combination Index)” value [1, 10] was 0.8, the “Fa (fraction affected)” value [1, 10] was 0.941 and the “CI (Combination Index)” value [2, 7] was 0.2. For the same molecule, the “Fa (fraction affected)” value [2, 7] was 0.467, the “CI (Combination Index)” value [2, 8] was 0.4 and the “Fa (fraction affected)” value [2, 8] was 0.519. The “CI (Combination Index)” value [2, 9] was 0.5, the “Fa (fraction affected)” value [2, 9] was 0.676 and the “CI (Combination Index)” value [2, 10] was 0.4. The “Fa (fraction affected)” value [2, 10] was 0.903, the “CI (Combination Index)” value [3, 7] was 1.12 and the “Fa (fraction affected)” value [3, 7] was 0.549. For the same molecule, the “CI (Combination Index)” value [3, 8] was 1.00, the “Fa (fraction affected)” value [3, 8] was 0.859 and the “CI (Combination Index)” value [3, 9] was 0.43. The “Fa (fraction affected)” value [3, 9] was 0.993, the “CI (Combination Index)” value [3, 10] was >0.1 and the “Fa (fraction affected)” value [3, 10] was 1.000. The “CI (Combination Index)” value [4, 7] was 0.9, the “Fa (fraction affected)” value [4, 7] was 0.211 and the “CI (Combination Index)” value [4, 8] was 1.2. For the same molecule, the “Fa (fraction affected)” value [4, 8] was 0.359, the “CI (Combination Index)” value [4, 9] was 1.4 and the “Fa (fraction affected)” value [4, 9] was 0.664. For the same molecule, the “CI (Combination Index)” value [4, 10] was 1.5, the “Fa (fraction affected)” value [4, 10] was 0.849 and the CI [5, 7] was 0.7. It also gave a Fa [5, 7] of 0.214, a CI [5, 8] of 0.9 and a Fa [5, 8] of 0.338. It also gave a CI [5, 9] of 0.8, a Fa [5, 9] of 0.623 and a CI [5, 10] of 0.5. The Fa [5, 10] was 0.862 and the “C.I. (Combination Index) with fenretinide” value [6] was < 1.
In the case of `CCCCCCCCCCCCCCCC[C@H](O)[C@@H](N)CO` [C19, (2S,3S)-2-amino-1,3-nonadecanediol], the “CI (Combination Index)” value [1, 7] is reported as 0.7, the “Fa (fraction affected)” value [1, 7] is reported as 0.389 and the “CI (Combination Index)” value [1, 8] is reported as 0.8. For the same molecule, the “Fa (fraction affected)” value [1, 8] was 0.700, the “CI (Combination Index)” value [1, 9] was 0.6 and the “Fa (fraction affected)” value [1, 9] was 0.975. The “CI (Combination Index)” value [1, 10] was 0.7, the “Fa (fraction affected)” value [1, 10] was 0.983 and the “CI (Combination Index)” value [2, 7] was 0.1. For the same molecule, the “Fa (fraction affected)” value [2, 7] was 0.787, the “CI (Combination Index)” value [2, 8] was 0.1 and the “Fa (fraction affected)” value [2, 8] was 0.881. For the same molecule, the “CI (Combination Index)” value [2, 9] was 0.1, the “Fa (fraction affected)” value [2, 9] was 0.943 and the “CI (Combination Index)” value [2, 10] was 0.1. The “Fa (fraction affected)” value [2, 10] was 0.978, the “CI (Combination Index)” value [3, 7] was 0.9 and the “Fa (fraction affected)” value [3, 7] was 0.649. For the same molecule, the “CI (Combination Index)” value [3, 8] was 0.9, the “Fa (fraction affected)” value [3, 8] was 0.895 and the “CI (Combination Index)” value [3, 9] was 0.5. For the same molecule, the “Fa (fraction affected)” value [3, 9] was 0.996, the “CI (Combination Index)” value [3, 10] was >0.1 and the “Fa (fraction affected)” value [3, 10] was 1.000. The “CI (Combination Index)” value [4, 7] was 2.1, the “Fa (fraction affected)” value [4, 7] was 0.016 and the “CI (Combination Index)” value [4, 8] was 1.7. The “Fa (fraction affected)” value [4, 8] was 0.198, the “CI (Combination Index)” value [4, 9] was 1.8 and the “Fa (fraction affected)” value [4, 9] was 0.648. The “CI (Combination Index)” value [4, 10] was 0.8, the “Fa (fraction affected)” value [4, 10] was 0.997 and the CI [5, 7] was 1.0. The Fa [5, 7] was 0.233, the CI [5, 8] was 1.1 and the Fa [5, 8] was 0.406. The CI [5, 9] was 1.1, the Fa [5, 9] was 0.635 and the CI [5, 10] was 0.5. The Fa [5, 10] was 0.913 and the “C.I. (Combination Index) with fenretinide” value [6] was < 1.
